{
  "source": "patent US9631002B2",
  "about": "“Methods and compositions for producing active vitamin K-dependent proteins” (The University of North Carolina at Chapel Hill, priority 2010, dated 2017)",
  "key": {"[1]": {"system": "FIXgla-PC carboxylation in AV12 cells"}, "[2]": {"system": "FIXgla-PC carboxylation in HEK 293 cells", "format": "cell-based, human", "conditions": "for inhibition of FIXgla-PC carboxylation by 2 μM warfarin: 5 μM KO as substrate"}, "[3]": {"system": "carboxylation of FIXgla-PC reporter protein in AV12 cells (reduction of vitamin K to KH2)", "experiment": "Cell-based VKOR activity assay in FIXgla-PC/AV12 or FIXgla-PC/VKOR-Y139F/AV12 cells, carboxylated reporter by ELISA", "design": "species or system Syrian golden hamster"}, "[4]": {"conditions": "literature refs 18, 25; cited from earlier work"}, "[5]": {"experiment": "Activity of warfarin-resistant Y139F human VKOR relative to wild-type human VKOR"}, "[6]": {"system": "carboxylation of FIXgla-PC reporter protein in HEK293 cells (reduction of KO to vitamin K)", "experiment": "Cell-based VKOR activity assay: recombinant VKOR/VKORH expressed in FIXgla-PC/HEK293 cells with KO and warfarin, carboxylated reporter by ELISA", "design": "species or system human", "conditions": "for carboxylation of reporter protein by human VKOR cysteine mutants: Y139F background, 4 μM warfarin, HEK293 (FIG. 13); for activity in the in vivo assay: cysteine mutants of VKOR-Y139F"}, "[7]": {"conditions": "previous in vitro results; cited from earlier work"}},
  "note": "Read-outs that look alike come from different tables or passages of the source.",
  "data": [
    {"molecule": "CC1=C(C/C=C(\\C)CCC[C@H](C)CCC[C@H](C)CCCC(C)C)C(=O)c2ccccc2C1=O", "note": "[vitamin K, Vitamin K1]", "values": [
      {"measurement": "vitamin K concentration at which maximum carboxylation of FIXgla-PC occurs", "setting": "[1]; AV12 cells", "value": 2.5, "unit": "µM"},
      {"measurement": "increase in secretion of carboxylated reporter protein compared to no additions", "setting": "[2]; 11 μM vitamin K or 5 μM KO, HEK293", "value": "approximately 25 fold"},
      {"measurement": "vitamin K concentration at which carboxylation occurred maximally", "setting": "[2]; absence of warfarin, HEK293, 48 h", "value": 1, "unit": "µM"},
      {"measurement": "vitamin K concentration at which maximal carboxylation was detected", "setting": "[2]; presence of 2 μM warfarin, HEK293, 48 h", "value": 22, "unit": "µM"}
    ]},
    {"molecule": "CC(=O)CC(c1ccccc1)c1c(O)c2ccccc2oc1=O", "note": "(centres unmarked) [warfarin]", "values": [
      {"measurement": "effect of warfarin on reporter protein carboxylation", "setting": "[1]; AV12 stably over expressing VKOR-Y139F, 5 μM KO, 2 μM warfarin", "value": "abolished reporter protein carboxylation"},
      {"measurement": "inhibition of production of carboxylated reporter protein by warfarin", "setting": "[1]; vitamin K as substrate, AV12", "value": "significantly inhibited"},
      {"measurement": "residual activity", "setting": "[1]; vitamin K as substrate, warfarin, AV12 (FIG. 4A)", "value": "~20", "unit": "%"},
      {"measurement": "carboxylated reporter protein detected in the medium in the presence of warfarin", "setting": "[2]; 1 μM vitamin K, 2 μM warfarin, HEK293", "value": "less than 20%"},
      {"measurement": "carboxylation of reporter protein by endogenous VKOR at 4 μM warfarin", "setting": "[2]; 4 μM warfarin, HEK293", "value": "completely abolished"},
      {"measurement": "inhibition of FIXgla-PC carboxylation by 2 μM warfarin", "setting": "[2]; 2 μM warfarin, HEK293", "value": "completely inhibited"},
      {"measurement": "inhibition of FIXgla-PC carboxylation by 2 μM warfarin", "setting": "[2]; 2 μM warfarin, HEK293, listed as Warfarin", "value": "eliminated KO-supported carboxylation"},
      {"measurement": "levels of carboxylated protein in the presence of warfarin, cells fed vitamin K", "setting": "[2]; 11 μM vitamin K as substrate, HEK293", "value": "unaffected"},
      {"measurement": "IC50", "setting": "[2]; Homo sapiens, KO (5 μM) as substrate, 48 h, HEK293, read-out: warfarin concentration giving 50% inhibition of FIXgla-PC carboxylation", "value": 100, "unit": "nM"}
    ]},
    {"molecule": "VKOR-Y139F: human VKOR rendered warfarin resistant by Y139F mutation; control (protein, UniProt Q9BQB6 1-163, looked up, variant Y139F) Vitamin K epoxide reductase …: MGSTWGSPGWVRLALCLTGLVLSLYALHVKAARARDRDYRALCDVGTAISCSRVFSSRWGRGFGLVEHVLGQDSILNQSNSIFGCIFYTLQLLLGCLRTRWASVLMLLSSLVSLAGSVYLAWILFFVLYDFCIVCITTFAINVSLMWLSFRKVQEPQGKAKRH", "values": [
      {"measurement": "increase of reporter protein carboxylation by over-expression", "setting": "[3]; stable expression in AV12, 5 μM KO, no warfarin (FIG. 7B)", "value": "approximately two-fold"},
      {"measurement": "carboxylated reporter protein secreted", "setting": "[3]; transient expression in FIXgla-PC/AV12, 5 μM KO, 2 μM warfarin (FIG. 7A)", "value": "no carboxylated reporter protein was secreted"},
      {"measurement": "support of reporter protein carboxylation", "setting": "[3]; transient expression in FIXgla-PC/AV12 not stably expressing VKOR-Y139F, KO and warfarin (FIG. 19B)", "value": "did not support carboxylation of the reporter protein"},
      {"measurement": "fraction of wild-type activity", "setting": "[4]", "value": "~40", "unit": "%"},
      {"measurement": "reduction in the activity of human VKOR caused by the Y139F mutation", "setting": "[5]", "value": "approximately 50%"},
      {"measurement": "fraction of wild-type VKOR activity observed", "setting": "[5]; Y139F human VKOR", "value": "About 50%"},
      {"measurement": "carboxylation of reporter protein by human VKOR cysteine mutants", "setting": "[6]", "value": "restored"},
      {"measurement": "increase of carboxylated reporter protein compared to the control", "setting": "[6]; transient expression, 5 μM KO, 2 μM warfarin, HEK293, control empty vector", "value": "~20", "unit": "fold"}
    ]},
    {"molecule": "C43A: warfarin resistant human VKOR (Y139F) with C43 mutated to alanine (protein, UniProt Q9BQB6 1-163, looked up, variant C43A) Vitamin K epoxide reductase …: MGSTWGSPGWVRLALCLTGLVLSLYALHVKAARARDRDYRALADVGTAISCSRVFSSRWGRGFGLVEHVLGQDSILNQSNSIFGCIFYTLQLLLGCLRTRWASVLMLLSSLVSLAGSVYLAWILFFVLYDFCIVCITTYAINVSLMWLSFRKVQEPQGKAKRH", "values": [
      {"measurement": "carboxylation of reporter protein by human VKOR cysteine mutants", "setting": "[6]", "value": "dramatically decreased activity"},
      {"measurement": "activity in the in vivo assay", "setting": "[6]; 5 μM KO, 4 μM warfarin (FIGS. 17A-B)", "value": "~5", "unit": "%"},
      {"measurement": "activity in the in vitro assay", "setting": "[7]", "value": "~30", "unit": "%"}
    ]},
    {"molecule": "C16A: warfarin resistant human VKOR (Y139F) with C16 mutated to alanine (protein, UniProt Q9BQB6 1-163, looked up, variant C16A) Vitamin K epoxide reductase …: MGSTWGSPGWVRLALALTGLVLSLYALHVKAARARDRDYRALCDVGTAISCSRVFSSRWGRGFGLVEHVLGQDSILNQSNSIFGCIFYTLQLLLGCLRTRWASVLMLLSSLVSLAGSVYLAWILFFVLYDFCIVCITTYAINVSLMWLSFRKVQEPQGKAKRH", "values": [
      {"measurement": "activity in the in vivo assay", "setting": "[6]; 5 μM KO, 4 μM warfarin (FIG. 17A)", "value": "no effect on activity"},
      {"measurement": "activity in the in vitro assay", "setting": "[7]", "value": "~40", "unit": "%"}
    ]}
  ]
}
